According to patent US20250320565A1, “DETECTING ANTIBIOTIC AND/OR CHEMICAL USE IN AQUATIC ANIMALS USING EPIGENETIC MEANS” (Evonik Operations GmbH, priority 2022, published 2025):

System: marble crayfish
Experiment: DNA methylation analysis (Agilent Sure Select Methyl-Seq) of abdominal tissue genomic DNA after antibiotic administration in feed
Format: in vivo
Settings: for number of DNA segments with significant differences between the control and the treated animals: Kruskal Wallis test, p<0.05, CpGs with at least 10 reads, average methylation <0.2 or >0.8 filtered out
Procedure: Marble crayfish collected from a population at Lake Reilinger, Germany were collected for the experiment and reared from juveniles in the laboratory. A total of 30 adult marbled crayfish were reared in one of 5 treatments with replicates as outlined in Table 1: • 1) Control—no antibiotic treatment • 2) TetraA—Acute tetracycline administration at 10 mg/kg of feed for 7 days • 3) TetraB—Prophylactic tetracycline administration at 5 mg/kg of feed for 42 days • 4) NorA—administered at 10 mg/kg of feed for 7 days • 5) NorB—administered at 5 mg/kg of feed for 28 days
All other rearing variables were kept consistent for all treatment groups. Crayfish were reared in plastic containers with 20° C. tap water, which was replaced every two weeks, exposed to natural day-night light rhythms and daily feeding.
A subset of abdominal tissue genomic DNA samples (Table 1) was utilized for analysis of the Agilent Sure Select Methyl-Seq Assay. Abdominal tissue was extracted from marble crayfish directly after treatment duration, DNA was then extracted as previously described (Tönges et al, 2021).
Library preparation was carried out as described in the Agilent's Sure Select Methyl-Seq Target Enrichment System for Illumina Multiplexed Sequencing Protocol (version E0, April 2018) to specifically analyze 361 genes. These genes were previously characterized as variably methylated genes in the marble crayfish genome, showing differential site-specific methylation patterns in marble crayfish from different wild populations (Gatzmann et al., 2018; Tönges et al., 2021b).
Quality controls were performed, and sample concentrations were measured on a 2,200 TapeStation (Agilent). Multiplexed samples were submitted to the DKFZ High Throughput Sequencing core facility and sequenced on a HiSeq system (Illumina). For data analysis, the 361 sequenced genes were mapped to the bisulfite sequencing datasets of the entire […] genome (Gatzmann et al., 2018; Xi and Li 2009).
To identify antibiotic-specific methylation ratios in genomic DNA from abdominal tissue, the average methylation of each sample within 1 kb of DNA segments was calculated.
The data sets of the 1754 DNA segments were further analyzed and only the CpG positions covered in all samples with at least 10 reads were used. In addition, the CpGs that were either completely methylated or unmethylated (average methylation <0.2 or >0.8) were filtered out.
The DNA segments of the PCA were further analyzed and only the CpG positions that have at least 10 reads in all samples were reused. Furthermore, the CpGs that are completely unmethylated or methylated (average methylation <0.2 or >0.8) were filtered out.

[1] = NorB: 5 mg/kg of feed for 28 days, compared with control and NorA
[2] = control vs the two treatment groups, average methylation

SMILES | number of DNA segments with significant differences between the control and the treated animals | average methylation rates of eight CpGs of gene Scaffold_52370: 13110767-13110901 (NorA: 10 mg/kg of feed for 7 days, compared with control) | methylation rates of eight CpGs of gene Scaffold_36323: 7555-7623 [1] | methylation ratios of eight CpGs of gene Scaffold_52370: 13110767-13110901 [1] | PCA separation between treated and untreated samples and between the two treatment groups (PCA of differentially methylated DNA segments) | effect size Cohen's d of all other DNA segments (very small effect) [2] | number of DNA segments showing a small effect (Cohen's d>0.2) [2] | analysis of DMRs, treatment groups vs control (p>0.05)
CCn1cc(C(=O)O)c(=O)c2cc(F)c(N3CCNCC3)cc21 [norfloxacin] | 71 | no significant difference | higher methylation rates in all CpGs | higher methylation ratios of all CpGs | robust separation | < 0.02 | 4 | no significant differences
CN(C)[C@@H]1C(O)=C(C(N)=O)C(=O)[C@@]2(O)C(O)=C3C(=O)c4c(O)cccc4[C@@](C)(O)[C@H]3C[C@@H]12 [tetracycline] | 432 | – | – | – | – | – | – | –
